According to patent US20240002365A1, “PYRIDAZINE AND 1,2,4-TRIAZINE DERIVATIVES AS FGFR KINASE INHIBITORS” (BETA PHARMA, INC., priority 2020, published 2024):
pIC50: −log10 of the molar value.

Target: FGFR1 (Homo sapiens (Human), UniProt P11362)
Assay: RBC NanoBRET Assay for Target Engagement in HEK293 cells transfected with FGFR1-NanoLuc Fusion vector
Assay type: cell-based
Conditions: 1 hour, tracer K5 1 μM
Procedure: Cellular Assay. The RBC NanoBRET Assay for Target Engagement was performed by Reaction Biology Corporation, 1 Great Valley Parkway, Suite 2 Malvern, PA 19355, USA. The assay was conducted in HEK293 cells transiently transfected with FGFR1-NanoLuc Fusion vector. The HEK293 cells (ATCC) were transfected with 1 μg of FGFR1-NanoLuc Fusion vector in 384-well format and the transfected cells were subsequently treated with the test compounds (starting at 10 μM, 10-dose with 3-fold dilution) for 1 hour using CTx-0294885 as the reference standard and K5 (1 μM) was used as the tracer. FGFR1 target engagement was measured and the curve fits were performed only when % NanoBret signal at the highest concentration of compounds was less than 55%.

Sequence of FGFR1 (P11362 22-822): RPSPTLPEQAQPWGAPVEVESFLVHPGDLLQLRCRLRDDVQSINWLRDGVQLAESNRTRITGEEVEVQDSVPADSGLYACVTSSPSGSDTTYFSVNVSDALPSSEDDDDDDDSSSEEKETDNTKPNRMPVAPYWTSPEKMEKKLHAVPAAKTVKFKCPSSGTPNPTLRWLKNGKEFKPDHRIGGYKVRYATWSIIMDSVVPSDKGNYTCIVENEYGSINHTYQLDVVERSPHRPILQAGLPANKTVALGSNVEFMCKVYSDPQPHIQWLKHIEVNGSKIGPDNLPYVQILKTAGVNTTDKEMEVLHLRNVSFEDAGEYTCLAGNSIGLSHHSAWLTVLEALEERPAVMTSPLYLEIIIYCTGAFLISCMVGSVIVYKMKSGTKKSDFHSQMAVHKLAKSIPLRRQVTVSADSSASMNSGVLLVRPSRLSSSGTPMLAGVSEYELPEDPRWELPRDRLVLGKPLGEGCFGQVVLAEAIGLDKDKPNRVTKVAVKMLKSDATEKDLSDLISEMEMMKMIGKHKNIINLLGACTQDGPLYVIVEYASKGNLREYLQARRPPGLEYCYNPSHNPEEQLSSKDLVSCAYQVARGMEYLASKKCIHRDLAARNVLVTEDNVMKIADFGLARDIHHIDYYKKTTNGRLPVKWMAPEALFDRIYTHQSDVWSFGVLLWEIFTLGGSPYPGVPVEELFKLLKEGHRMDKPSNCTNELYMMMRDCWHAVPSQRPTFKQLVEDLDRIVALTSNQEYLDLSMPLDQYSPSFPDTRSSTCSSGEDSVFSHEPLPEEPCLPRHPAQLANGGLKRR

Molecule `CNC(=O)c1ccccc1Nc1nc(Nc2ccc(N3CCNCC3)cc2)ncc1Cl` [CTx-0294885, reference compound] has a pIC50 of 7.46.
